From patent US20240041877A1, “DOSAGE REGIME AND METHOD FOR TREATING PULMONARY ARTERIAL HYPERTENSION” (Altavant Sciences GmbH, priority 2019, published 2024)

Legend:
Format in all cases: in vivo, human
[1] = tested on: plasma 5-HIAA (a PD marker of 5-HT synthesis); experiment: Part 2 (MAD) biomarker: plasma 5-HIAA change from Day 1 predose; conditions: for mean reduction from Day 1 to Day 14 in plasma 5-HIAA: KAR5585 100 mg BID
Excerpt: (§1) Biomarkers were to be evaluated in Part 2 by measuring concentrations of serotonin (5-hydroxytryptamine [5-HT]) in serum and 5-hydroxyindoleacetic acid (5-HIAA) in plasma and urine. As well, the relationship of biomarkers to PK parameters was to be evaluated.
(§2) The biomarker analysis was to be based on the Biomarker Population (all subjects with evaluable biomarker measurements at baseline [Day 1 predose] and at least one after dosing [Day 7 or Day 14]).
(§3) Biomarker data were to be collected only in Part 2. The following biomarkers were to be analyzed: • Serum 5-HT • Plasma 5-HIAA • Urine 5-HIAA/24 hours (as measured, adjusted, estimated, and per gram creatinine)
The a priori primary biomarker endpoint was to be the change in plasma 5-HIAA concentration on Day 14 from Day 1.
(§4) Summary statistics (mean, standard deviation [SD], median, minimum [Min], and maximum [Max]) were to be tabulated for each biomarker, by Cohort, with absolute and relative (%) changes from Day 1 predose.
(§5) The values were to be tabulated with P values testing whether the difference of changes was equal to 0.
(§6) The biomarker portion of the study was conducted in Part 2 MAD using the Biomarker Population. The biomarkers evaluated were serum 5-HT and plasma 5-HIAA, as well as urine 5-HIAA/24 hours (as measured, adjusted, estimated, and per gram creatinine). Urinary 5-HIAA was determined by a validated (21 C.F.R. 58, GLP-compliant) method using liquid chromatographic separation and tandem mass spectrometry detection.

[2] = Cardiac conduction (QTcF) in healthy adult subjects
[3] = tested on: urine 5-HIAA (a PD marker of 5-HT synthesis); experiment: Part 2 (MAD) biomarker: urine 5-HIAA/24 hours (measured, adjusted, estimated, per gram creatinine); conditions: for Measured urine 5-HIAA: mean difference of % change from Day 1 between KAR5585 and placebo / Measured urine 5-HIAA: mean difference of absolute change from Day 1 between KAR5585 and placebo: no creatinine adjustment
Excerpt: as §1, §2, §3, §4, §5, §6
Urine 5 HIAA/24 hour was analyzed in 4 different manners: as measured in the 24-hour collection and (in order to correct for any collection errors) adjusted for creatinine excretion, estimated by the expected creatinine excretion for the subject (as defined in and expressed per gram creatinine. Results were similar for each of the 4 manners and are presented in this report for measured urine. Tables and figures for adjusted, estimated, and per-gram creatinine results are presented in Section 14.

[4] = KAR5585 400 mg BID, fed, listed as KAR5575
[5] = all doses pooled, predose Day 7
[6] = all doses pooled, predose Day 14

With `CCOC(=O)[C@@H]1CC2(CCN(c3cc(O[C@H](c4ccc(Cl)cc4-c4ccccc4)C(F)(F)F)nc(N)n3)CC2)CN1` [KAR5585, (S)-ethyl 8-(2-amino-6-((R)-1-(5-chloro-[1,1′-biphenyl]-2-yl)-2,2,2-trifluoroethoxy)pyrimidin-4-yl)-2,8-diazaspiro[4.5]decane-3-carboxylate] the “Plasma 5-HIAA: mean difference of % change from Day 1 between KAR5585 and placebo” value ([1]; 100 mg fasting, predose Day 7) was 23.67%, the “Plasma 5-HIAA: mean difference of absolute change from Day 1 between KAR5585 and placebo” value ([1]; 100 mg fasting, predose Day 7) was 0.33 ng/mL and the “Plasma 5-HIAA: mean difference of % change from Day 1 between KAR5585 and placebo” value ([1]; 100 mg fasting, predose Day 14) was −48.83%. The “Plasma 5-HIAA: mean difference of absolute change from Day 1 between KAR5585 and placebo” value ([1]; 100 mg fasting, predose Day 14) was -5.92 ng/mL, the “Plasma 5-HIAA: mean difference of % change from Day 1 between KAR5585 and placebo” value ([1]; 100 mg fed, predose Day 7) was −48.56% and the “Plasma 5-HIAA: mean difference of absolute change from Day 1 between KAR5585 and placebo” value ([1]; 100 mg fed, predose Day 7) was -4.56 ng/mL. For the same compound, the “Plasma 5-HIAA: mean difference of % change from Day 1 between KAR5585 and placebo” value ([1]; 100 mg fed, predose Day 14) was −52.70%, the “Plasma 5-HIAA: mean difference of absolute change from Day 1 between KAR5585 and placebo” value ([1]; 100 mg fed, predose Day 14) was -4.50 ng/mL and the “Plasma 5-HIAA: mean difference of % change from Day 1 between KAR5585 and placebo” value ([1]; 200 mg fed, predose Day 7) was 12.06%. The “Plasma 5-HIAA: mean difference of absolute change from Day 1 between KAR5585 and placebo” value ([1]; 200 mg fed, predose Day 7) was 1.22 ng/mL, the “Plasma 5-HIAA: mean difference of % change from Day 1 between KAR5585 and placebo” value ([1]; 200 mg fed, predose Day 14) was −52.46% and the “Plasma 5-HIAA: mean difference of absolute change from Day 1 between KAR5585 and placebo” value ([1]; 200 mg fed, predose Day 14) was -5.25 ng/mL. The “Plasma 5-HIAA: mean difference of % change from Day 1 between KAR5585 and placebo” value ([1]; 400 mg fed, predose Day 7) was −76.47%, the “Plasma 5-HIAA: mean difference of absolute change from Day 1 between KAR5585 and placebo” value ([1]; 400 mg fed, predose Day 7) was -11.44 ng/mL and the “Plasma 5-HIAA: mean difference of % change from Day 1 between KAR5585 and placebo” value ([1]; 400 mg fed, predose Day 14) was −73.45%. For the same compound, the “Plasma 5-HIAA: mean difference of absolute change from Day 1 between KAR5585 and placebo” value ([1]; 400 mg fed, predose Day 14) was -10.69 ng/mL, the “mean reduction from Day 1 to Day 14 in plasma 5-HIAA” value ([1]; fasting) was −28.71% and the “mean reduction from Day 1 to Day 14 in plasma 5-HIAA” value ([1]; fed) was −32.58%. For the same compound, the “mean percent change in plasma 5-HIAA from Day 1 to Day 7” value ([1]; KAR5585 400 mg BID, fed) was −56.67%, the “mean percent change in plasma 5-HIAA concentration from Day 1 to Day 14” value [1, 4] was −53.33% and the “Plasma 5-HIAA: mean difference of % change from Day 1 between KAR5585 and placebo” value [1, 5] was −22.33%. For the same compound, the “Plasma 5-HIAA: mean difference of absolute change from Day 1 between KAR5585 and placebo” value [1, 5] was -3.61 ng/mL, the “Plasma 5-HIAA: mean difference of % change from Day 1 between KAR5585 and placebo” value [1, 6] was −57.11% and the “Plasma 5-HIAA: mean difference of absolute change from Day 1 between KAR5585 and placebo” value [1, 6] was -6.69 ng/mL. For the same compound, the “mean difference vs placebo of absolute and percent changes from Day 1 to Day 14 in plasma 5-HIAA, significance” value ([1]; each dose group and all doses combined) was “statistically significant in favor of KAR5585 compared to placebo in each dose group and for all doses combined at Day 14”, the “tendency to increase QTcF in a dose-dependent manner” value [2] was “Neither the prodrug (KAR5585) nor the active drug (KAR5417) showed any tendency to increase QTcF in a dose-dependent manner” and the “Measured urine 5-HIAA: mean difference of % change from Day 1 between KAR5585 and placebo” value ([3]; 100 mg fasting, Day 7) was −31.97%. The “Measured urine 5-HIAA: mean difference of absolute change from Day 1 between KAR5585 and placebo” value ([3]; 100 mg fasting, Day 7) was −0.92 mg/24 hours, the “Measured urine 5-HIAA: mean difference of % change from Day 1 between KAR5585 and placebo” value ([3]; 100 mg fasting, Day 14) was −17.65% and the “Measured urine 5-HIAA: mean difference of absolute change from Day 1 between KAR5585 and placebo” value ([3]; 100 mg fasting, Day 14) was −0.91 mg/24 hours. The “Measured urine 5-HIAA: mean difference of % change from Day 1 between KAR5585 and placebo” value ([3]; 100 mg fed, Day 7) was −50.34%, the “Measured urine 5-HIAA: mean difference of absolute change from Day 1 between KAR5585 and placebo” value ([3]; 100 mg fed, Day 7) was −2.09 mg/24 hours and the “Measured urine 5-HIAA: mean difference of % change from Day 1 between KAR5585 and placebo” value ([3]; 100 mg fed, Day 14) was −36.03%. For the same compound, the “Measured urine 5-HIAA: mean difference of absolute change from Day 1 between KAR5585 and placebo” value ([3]; 100 mg fed, Day 14) was −1.65 mg/24 hours, the “Measured urine 5-HIAA: mean difference of % change from Day 1 between KAR5585 and placebo” value ([3]; 200 mg fed, Day 7) was −26.95% and the “Measured urine 5-HIAA: mean difference of absolute change from Day 1 between KAR5585 and placebo” value ([3]; 200 mg fed, Day 7) was −0.92 mg/24 hours. For the same compound, the “Measured urine 5-HIAA: mean difference of % change from Day 1 between KAR5585 and placebo” value ([3]; 200 mg fed, Day 14) was −37.11%, the “Measured urine 5-HIAA: mean difference of absolute change from Day 1 between KAR5585 and placebo” value ([3]; 200 mg fed, Day 14) was −1.58 mg/24 hours and the “Measured urine 5-HIAA: mean difference of % change from Day 1 between KAR5585 and placebo” value ([3]; 400 mg fed, Day 7) was −49.41%. The “Measured urine 5-HIAA: mean difference of absolute change from Day 1 between KAR5585 and placebo” value ([3]; 400 mg fed, Day 7) was −1.68 mg/24 hours, the “Measured urine 5-HIAA: mean difference of % change from Day 1 between KAR5585 and placebo” value ([3]; 400 mg fed, Day 14) was −54.82% and the “Measured urine 5-HIAA: mean difference of absolute change from Day 1 between KAR5585 and placebo” value ([3]; 400 mg fed, Day 14) was −2.04 mg/24 hours. The “absolute and percent changes from Day 1 in creatinine-normalized urine 5-HIAA vs placebo, significance” value ([3]; Days 7 and 14) was “statistically significant in favor of KAR5585 versus placebo in all dose groups”, the “mean percent change in measured urine 5-HIAA from Day 1 to Day 7” value ([3]; KAR5585 400 mg BID, fed) was −39.97% and the “mean percent change in measured urine 5-HIAA from Day 1 to Day 14” value [3, 4] was −50.85%. The “Measured urine 5-HIAA: mean difference of % change from Day 1 between KAR5585 and placebo” value ([3]; all doses pooled, Day 7) was −40.03% and the “Measured urine 5-HIAA: mean difference of absolute change from Day 1 between KAR5585 and placebo” value ([3]; all doses pooled, Day 7) was −1.42 mg/24 hours.
